From ChEMBL document CHEMBL1201862, “PubChem BioAssay data set” (2004)
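Step 1: Grow cells in 96-well plates. Step 2: Expose to compound for 48 hours at 5 concentrations. Step 3: Interpolate endpoints linearly; if unreached, use highest concentration. GI50: concentration for 50% inhibition of growth.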 Calls of active or inactive are those of the source. No stated cut-off is given here; in the data, active = GI50 up to about 1.1 µM and inactive = higher.

Tests used:
Assay in all cases: NCI tumour cell line growth inhibition, 48 h
IGROV-1 = tested on: IGROV-1
A498 = tested on: A498
A549 = tested on: A549
SNB-75 = tested on: SNB-75
SK-MEL-2 = tested on: SK-MEL-2
SN12C = tested on: SN12C
SK-MEL-5 = tested on: SK-MEL-5
SF-295 = tested on: SF-295
HCT-15 = tested on: HCT-15
COLO 205 = tested on: COLO 205
ACHN = tested on: ACHN
UACC-62 = tested on: UACC-62
Malme-3M = tested on: Malme-3M
CCRF-CEM = tested on: CCRF-CEM
MDA-MB-231 = tested on: MDA-MB-231
HOP-92 = tested on: HOP-92
NCI-H522 = tested on: NCI-H522
K562 = tested on: K562
786-0 = tested on: 786-0
OVCAR-5 = tested on: OVCAR-5

Structure (SMILES) | GI50 (IGROV-1) | GI50 (A498) | GI50 (A549) | GI50 (SNB-75) | GI50 (SK-MEL-2) | GI50 (SN12C) | GI50 (SK-MEL-5) | GI50 (SF-295) | GI50 (HCT-15) | GI50 (COLO 205) | GI50 (ACHN) | GI50 (UACC-62) | GI50 (Malme-3M) | GI50 (CCRF-CEM) | GI50 (MDA-MB-231) | GI50 (HOP-92) | GI50 (NCI-H522) | GI50 (K562) | GI50 (786-0) | GI50 (OVCAR-5)
S=P(C1CCCCC1)(C1CCCCC1)C(c1cccnc1)N1CCCC1 (stereo not given) | 17.9 µM (inactive) | 27.7 µM (inactive) | 17.8 µM (inactive) | 19.4 µM (inactive) | 20.9 µM (inactive) | 18.2 µM (inactive) | 16.5 µM (inactive) | 21.2 µM (inactive) | 35.7 µM | 18.9 µM (inactive) | 20.3 µM (inactive) | 22.5 µM (inactive) | 23.2 µM (inactive) | 15.8 µM (inactive) | 18.6 µM (inactive) | 23.5 µM (inactive) | 20.6 µM (inactive) | 21.2 µM (inactive) | 17.6 µM (inactive) | 36.1 µM (inactive)
Clc1ccc(C2=Cc3nc2c(-c2ccccc2)c2ccc([nH]2)c(-c2ccccc2)c2nc(c(-c4ccccc4)c4ccc([nH]4)c3-c3ccccc3)C=C2)cc1 | > 62.5 µM (inactive) | > 62.5 µM (inactive) | > 62.5 µM (inactive) | 32.9 µM (inactive) | > 62.5 µM (inactive) | > 62.5 µM (inactive) | > 62.5 µM (inactive) | > 62.5 µM (inactive) | > 62.5 µM | > 62.5 µM (inactive) | > 62.5 µM (inactive) | > 62.5 µM (inactive) | > 62.5 µM (inactive) | > 62.5 µM (inactive) | > 62.5 µM (inactive) | 61 µM (inactive) | > 62.5 µM (inactive) | > 62.5 µM (inactive) | > 62.5 µM (inactive) | > 62.5 µM (inactive)
O=C(CC(=O)Nc1ccccc1Cl)NNC(Sc1ccccc1)c1cc(/N=N/c2ccc(Br)cc2)ccc1O (stereo not given) | 2.71 µM (inactive) | 2.39 µM (inactive) | 3.08 µM (inactive) | 4.8 µM (inactive) | 3.3 µM (inactive) | 2.22 µM (inactive) | 1.07 µM (active) | 1.88 µM (inactive) | 0.679 µM | 4.35 µM (inactive) | 1.36 µM (inactive) | 1.17 µM (inactive) | 2.12 µM (inactive) | 0.409 µM (active) | 2.22 µM (inactive) | 2.07 µM (inactive) | 4.07 µM (inactive) | 2.31 µM (inactive) | 0.653 µM (active) | 3.01 µM (inactive)
